This passage reports MIC, logD and Activity results from ChEMBL document CHEMBL3244002, “Activity-electroreduction relationship of antimicrobial metronidazole analogues” (J Med Chem, 1978).

Values after ≈ are worked out from the molar mass of the structure shown.

For one series, the system named is Trichomonas vaginalis. The experiment in a line: Antimicrobial activity against Trichomonas vaginalis ATCC 30001 assessed as growth inhibition after 48 hrs under anaerobic conditions by microscopic analysis. Format: functional. Conditions: ATCC 30001, 48 h; call rule not given here.
A short description of series [1]: 1-Octanol-saturated McIlvaine buffer partition coefficient, log P of the compound at 80 uM at pH 6.01 by spectrophotometric analysis. The series is classed as physicochemical. The settings on record: 1-octanol/McIlvaine buffer.
For the next series, the system named is Clostridium pasteurianum. The experiment in a line: Antimicrobial activity against Clostridium pasteurianum ATCC 6013 assessed as growth inhibition after 24 hrs under anaerobic conditions by microscopic analysis. Format: functional. Conditions: ATCC 6013, 24 h.
The nature of series [2]: Decrease in current height for electroreduction of S-Fe bonding in clostridial ferridoxin assessed as alternating current reduction peak potential at 32 uM by polarographic technique. Format: physicochemical.
A short description of series [3]: Effect on magnitude of electroreduction potential (Ep) of clostridial ferridoxin by alternating current polarographic technique. Format: physicochemical.

Turning to `Cc1ncc([N+](=O)[O-])n1CCCl`, the MIC in the series on Trichomonas vaginalis was determined as 0.195 µg/mL (≈ 1.03 µM); in the series with Clostridium pasteurianum, 0.39 µg/mL (≈ 2.06 µM). In addition, the logD at 80 µM in series [1] came out at 0.879.

Regarding `CC(=O)OCCn1c([N+](=O)[O-])cnc1C`, the results for the minimal inhibitory concentration (MIC) in the series with Trichomonas vaginalis and in the series with Clostridium pasteurianum were 0.098 µg/mL (≈ 0.46 µM) and 0.39 µg/mL (≈ 1.83 µM), respectively. This compound had a log distribution coefficient (logD) at 80 µM in series [1] of 0.301.

Take `Cc1ncc([N+](=O)[O-])n1CCSC(=S)N(C)C`: the Activity is 0.533 V in series [2] and “Not Active” in series [3]. Moreover, the results for the MIC in the series with Trichomonas vaginalis and in the series on Clostridium pasteurianum were 0.195 µg/mL (≈ 0.711 µM) and 0.683 µg/mL (≈ 2.49 µM), respectively. In series [1], this compound gave a logD at 80 µM of 1.28.

With `Cc1ncc([N+](=O)[O-])n1CCN=[N+]=[N-]`, the minimum inhibitory concentration (MIC) in the series on Trichomonas vaginalis stood at 0.341 µg/mL (≈ 1.74 µM); in the series on Clostridium pasteurianum it was 0.39 µg/mL (≈ 1.99 µM). The compound also registered a logD at 80 µM in series [1] of 0.755.

Turning to `Cc1ncc([N+](=O)[O-])n1CCOC(=O)N(C)C`, the MIC was 0.195 µg/mL (≈ 0.805 µM) in the series on Trichomonas vaginalis and 0.39 µg/mL (≈ 1.61 µM) with Clostridium pasteurianum. The log distribution coefficient (logD) at 80 µM in series [1] was 0.455.

Consider `Cc1ncc([N+](=O)[O-])n1CCS(=O)(=O)[O-].[Na+]`, for which the MIC is 6.25 µg/mL in the series on Trichomonas vaginalis and 1.17 µg/mL in the series with Clostridium pasteurianum. Also, the log distribution coefficient (logD) at 80 µM in series [1] is -2.05.

`CC(=O)NCCn1c([N+](=O)[O-])cnc1C`: the MIC came to 10.9 µg/mL (≈ 51.6 µM) with Trichomonas vaginalis and 0.78 µg/mL (≈ 3.68 µM) with Clostridium pasteurianum. Further, the logD at 80 µM in series [1] is -0.469.

Consider `Cc1ncc([N+](=O)[O-])n1CCSc1ccc(Cl)cc1`, for which the minimum inhibitory concentration (MIC) worked out at 12.5 µg/mL (≈ 42 µM) with Trichomonas vaginalis and 5.47 µg/mL (≈ 18.4 µM) with Clostridium pasteurianum. This compound also displayed a logD at 80 µM in series [1] of 1.47.

`Cc1ncc([N+](=O)[O-])n1CCO` [METRONIDAZOLE]: the values for the MIC in the series with Trichomonas vaginalis and in the series with Clostridium pasteurianum were 0.098 µg/mL (≈ 0.573 µM) and 0.244 µg/mL (≈ 1.43 µM), respectively. In addition, in series [1], the logD at 80 µM was -0.051.

As a reminder, the MIC is the lowest concentration found to suppress growth. A word on the logD: it is the decadic logarithm of the distribution of all forms, ionised or not, between an organic phase and buffer at a given pH. High values mean a more lipophilic compound, low ones a more hydrophilic compound.
